Measurements: publication PMC5101133 (Nature biotechnology, 2016)

What was measured:
Experiment in all cases: NADH fluorescence
Format in all cases: biochemical
Details in all cases: 1 mM NAD+, 50 mM Tris pH 8.0, 150 mM NaCl, 0.1% Triton X-100
[1] = target: T1, Hfd1p^CΔ25 (MBP-Hfd1^CΔ25) (Saccharomyces cerevisiae, UniProt Q04458)
T1 sequence (Q04458 1-507): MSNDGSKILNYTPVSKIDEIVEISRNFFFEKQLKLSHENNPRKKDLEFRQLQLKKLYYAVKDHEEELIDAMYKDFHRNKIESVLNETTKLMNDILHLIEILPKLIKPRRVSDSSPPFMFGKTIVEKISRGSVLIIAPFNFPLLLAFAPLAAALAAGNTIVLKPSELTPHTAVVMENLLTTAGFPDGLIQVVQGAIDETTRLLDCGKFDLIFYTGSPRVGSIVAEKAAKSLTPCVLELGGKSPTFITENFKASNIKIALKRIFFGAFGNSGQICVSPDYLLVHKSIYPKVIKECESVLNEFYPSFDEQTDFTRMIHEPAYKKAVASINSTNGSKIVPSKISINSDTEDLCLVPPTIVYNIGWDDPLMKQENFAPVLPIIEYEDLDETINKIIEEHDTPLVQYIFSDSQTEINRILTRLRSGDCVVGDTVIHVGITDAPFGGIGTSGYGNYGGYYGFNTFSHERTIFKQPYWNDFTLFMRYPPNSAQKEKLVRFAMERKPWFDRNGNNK

ALDH3A2^CΔ25 (FALDH) = ALDH3A2^CΔ25 (FALDH) (Homo sapiens, UniProt P51648)
Chain of ALDH3A2^CΔ25 (FALDH) (P51648 1-460, stated change not applied): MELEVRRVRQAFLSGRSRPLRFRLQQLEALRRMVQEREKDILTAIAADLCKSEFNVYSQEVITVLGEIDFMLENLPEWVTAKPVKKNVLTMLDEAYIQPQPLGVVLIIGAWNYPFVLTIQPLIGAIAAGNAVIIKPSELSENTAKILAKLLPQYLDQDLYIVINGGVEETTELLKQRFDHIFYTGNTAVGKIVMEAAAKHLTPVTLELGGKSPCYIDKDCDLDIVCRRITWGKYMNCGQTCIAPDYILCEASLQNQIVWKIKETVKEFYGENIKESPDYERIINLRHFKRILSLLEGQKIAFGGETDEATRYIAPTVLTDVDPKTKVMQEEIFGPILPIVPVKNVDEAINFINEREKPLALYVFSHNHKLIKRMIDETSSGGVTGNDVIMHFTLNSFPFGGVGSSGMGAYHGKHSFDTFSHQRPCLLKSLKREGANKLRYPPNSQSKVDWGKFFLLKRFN

ALDH3A1 = target: T2, ALDH3A1 (Homo sapiens, UniProt P30838)
T2 sequence (P30838 1-453): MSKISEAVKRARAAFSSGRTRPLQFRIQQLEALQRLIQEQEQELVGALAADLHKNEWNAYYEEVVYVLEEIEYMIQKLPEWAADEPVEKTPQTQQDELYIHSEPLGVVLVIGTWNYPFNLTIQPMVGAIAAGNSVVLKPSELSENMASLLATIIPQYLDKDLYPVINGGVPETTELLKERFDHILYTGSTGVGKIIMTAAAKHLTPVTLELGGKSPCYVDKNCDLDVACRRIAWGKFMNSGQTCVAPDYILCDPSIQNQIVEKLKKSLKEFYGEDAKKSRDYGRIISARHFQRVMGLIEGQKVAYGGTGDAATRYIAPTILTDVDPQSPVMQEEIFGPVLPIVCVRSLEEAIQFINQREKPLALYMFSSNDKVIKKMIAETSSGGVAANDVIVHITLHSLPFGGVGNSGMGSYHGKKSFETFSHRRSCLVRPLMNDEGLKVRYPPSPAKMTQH

Structure (SMILES) | KM [1] | KM (ALDH3A2^CΔ25 (FALDH)) | KM (ALDH3A1)
CCCCCCCCCCCCCCCC=O [hexadecanal] | we observed Hfd1p activity in vitro with hexadecanal, similar to that observed with 4-HBz | ALDH3A2 shows a strong substrate preference for hexadecanal over 4-HBz | 
O=Cc1ccc(O)cc1 [4-HBz] | WT Hfd1p catalyzes NAD^+-dependent dehydrogenation of 4-HBz |  | Hfd1p and ALDH3A1 show a preference for 4-HBz
